# Laboratory results as given in PubChem BioAssay AID2060609 (Molecular Pharmacology Branch, DTP, NCI, 2025).
# Tested on: 855422-203-R-J1-PDC complex spheroids, viability
# Experiment: Anticancer human tumor 855422-203-R-J1-PDC patient-derived bladder carcinoma cell line growth inhibition [CLK]
# Conditions: for IC50: curve of first compound; for viability, T/C: stronger effect = lower value
# Procedure, shortened: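 Multi-cell-type spheroids combined patient-derived tumor cells with HUVEC endothelial cells and human mesenchymal stem cells. Paired agents were dosed in half-log steps down from about clinical Cmax, or from 10 microM where Cmax was unknown.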
# [1] = second compound 0.0316 µM, first compound 0.0316 µM
# [2] = second compound 0.0316 µM, first compound 0.1 µM
# [3] = second compound 0.0316 µM, first compound 0.316 µM
# [4] = second compound 0.0316 µM, first compound 1 µM
# [5] = second compound 0.0316 µM, first compound 3.16 µM
# [6] = second compound 0.0316 µM, first compound 10 µM
# [7] = second compound 0.1 µM, first compound 0.0316 µM
# [8] = second compound 0.1 µM, first compound 0.1 µM
# [9] = second compound 0.1 µM, first compound 0.316 µM
# [10] = second compound 0.1 µM, first compound 1 µM
# [11] = second compound 0.1 µM, first compound 3.16 µM
# [12] = second compound 0.1 µM, first compound 10 µM
# [13] = second compound 0.316 µM, first compound 0.0316 µM
# [14] = second compound 0.316 µM, first compound 0.1 µM
# [15] = second compound 0.316 µM, first compound 0.316 µM
# [16] = second compound 0.316 µM, first compound 1 µM
# [17] = second compound 0.316 µM, first compound 3.16 µM
# [18] = second compound 0.316 µM, first compound 10 µM
# [19] = second compound 1 µM, first compound 0.0316 µM
# [20] = second compound 1 µM, first compound 0.1 µM
# [21] = second compound 1 µM, first compound 0.316 µM
# [22] = second compound 1 µM, first compound 1 µM
# [23] = second compound 1 µM, first compound 3.16 µM
# [24] = second compound 1 µM, first compound 10 µM
# [25] = second compound 3.16 µM, first compound 0.0316 µM
# [26] = second compound 3.16 µM, first compound 0.1 µM
# [27] = second compound 3.16 µM, first compound 0.316 µM
# [28] = second compound 3.16 µM, first compound 1 µM
# [29] = second compound 3.16 µM, first compound 3.16 µM
# [30] = second compound 3.16 µM, first compound 10 µM
# [31] = second compound 10 µM, first compound 0.0316 µM
# [32] = second compound 10 µM, first compound 0.1 µM
# [33] = second compound 10 µM, first compound 0.316 µM
# [34] = second compound 10 µM, first compound 1 µM
# [35] = second compound 10 µM, first compound 3.16 µM
# [36] = second compound 10 µM, first compound 10 µM
# 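Also: spheroids exposed to drugs for seven days before readout.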
# 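For viability, T/C in this document: 100% = DMSO vehicle control wells.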
smiles,measurement,setting,value
C#Cc1c(F)ccc2cc(O)cc(-c3ncc4c(N5CC6CCC(C5)N6)nc(OCC56CCCN5CC(F)C6)nc4c3F)c12 (stereo not given) + CNC(=O)c1ccc(Nc2nc(OC3CCCC3)c3c(-c4ccc5nc(C)oc5c4)c[nH]c3n2)c(OC)c1,IC50,second compound 0.0316 µM,> 10000 nM
same,IC50,second compound 0.1 µM,392 nM
same,IC50,second compound 0.316 µM,< 31.6 nM
same,IC50,second compound 1 µM,< 31.6 nM
same,IC50,second compound 3.16 µM,< 31.6 nM
same,IC50,second compound 10 µM,< 31.6 nM
same,"viability, T/C",[1],95.4%
same,"viability, T/C",[2],111%
same,"viability, T/C",[3],100%
same,"viability, T/C",[4],87.2%
same,"viability, T/C",[5],132%
same,"viability, T/C",[6],84.9%
same,"viability, T/C",[7],60.2%
same,"viability, T/C",[8],51.1%
same,"viability, T/C",[9],56.7%
same,"viability, T/C",[10],39.6%
same,"viability, T/C",[11],32.7%
same,"viability, T/C",[12],22%
same,"viability, T/C",[13],21.2%
same,"viability, T/C",[14],24.9%
same,"viability, T/C",[15],24.8%
same,"viability, T/C",[16],22.9%
same,"viability, T/C",[17],24.3%
same,"viability, T/C",[18],21.8%
same,"viability, T/C",[19],19.8%
same,"viability, T/C",[20],21.5%
same,"viability, T/C",[21],19.5%
same,"viability, T/C",[22],22.1%
same,"viability, T/C",[23],23.2%
same,"viability, T/C",[24],19.3%
same,"viability, T/C",[25],20.6%
same,"viability, T/C",[26],18.1%
same,"viability, T/C",[27],17.3%
same,"viability, T/C",[28],22%
same,"viability, T/C",[29],25.4%
same,"viability, T/C",[30],13.3%
same,"viability, T/C",[31],21.8%
same,"viability, T/C",[32],22.4%
same,"viability, T/C",[33],24.1%
same,"viability, T/C",[34],18.9%
same,"viability, T/C",[35],17.3%
same,"viability, T/C",[36],14.8%
C=C(F)C(=O)N1CCN(c2nc(OCC3CCCN3C)nc3c2CCN(c2cccc4cccc(Cl)c24)C3)CC1CC#N (stereo not given) + CNC(=O)c1ccc(Nc2nc(OC3CCCC3)c3c(-c4ccc5nc(C)oc5c4)c[nH]c3n2)c(OC)c1,IC50,second compound 0.0316 µM,2500 nM
same,IC50,second compound 0.1 µM,< 31.6 nM
same,IC50,second compound 0.316 µM,< 31.6 nM
same,IC50,second compound 1 µM,< 31.6 nM
same,IC50,second compound 3.16 µM,< 31.6 nM
same,IC50,second compound 10 µM,< 31.6 nM
same,"viability, T/C",[1],83.1%
same,"viability, T/C",[2],88.6%
same,"viability, T/C",[3],81.8%
same,"viability, T/C",[4],132%
same,"viability, T/C",[5],38.1%
same,"viability, T/C",[6],0.16%
same,"viability, T/C",[7],24.2%
same,"viability, T/C",[8],21%
same,"viability, T/C",[9],23.7%
same,"viability, T/C",[10],27.5%
same,"viability, T/C",[11],10.2%
same,"viability, T/C",[12],0.11%
same,"viability, T/C",[13],16.6%
same,"viability, T/C",[14],19.6%
same,"viability, T/C",[15],19.9%
same,"viability, T/C",[16],18.7%
same,"viability, T/C",[17],10.1%
same,"viability, T/C",[18],0.07%
same,"viability, T/C",[19],21.5%
same,"viability, T/C",[20],15.8%
same,"viability, T/C",[21],19.4%
same,"viability, T/C",[22],18.6%
same,"viability, T/C",[23],8.14%
same,"viability, T/C",[24],0.07%
same,"viability, T/C",[25],18.5%
same,"viability, T/C",[26],14.9%
same,"viability, T/C",[27],14.8%
same,"viability, T/C",[28],20.5%
same,"viability, T/C",[29],9.57%
same,"viability, T/C",[30],1.06%
same,"viability, T/C",[31],18.1%
same,"viability, T/C",[32],21.6%
same,"viability, T/C",[33],21%
same,"viability, T/C",[34],16.9%
same,"viability, T/C",[35],7.87%
same,"viability, T/C",[36],8.64%
CC(CO)NC(=O)c1cc(-c2ccc(Cl)cc2)nn(-c2cnn(C)c2)c1=O (stereo not given) + CNC(=O)c1ccc(Nc2nc(OC3CCCC3)c3c(-c4ccc5nc(C)oc5c4)c[nH]c3n2)c(OC)c1,IC50,second compound 0.0316 µM,> 10000 nM
same,IC50,second compound 0.1 µM,3540 nM
same,IC50,second compound 0.316 µM,< 31.6 nM
same,IC50,second compound 1 µM,< 31.6 nM
same,IC50,second compound 3.16 µM,< 31.6 nM
same,IC50,second compound 10 µM,< 31.6 nM
same,"viability, T/C",[1],99%
same,"viability, T/C",[2],78.6%
same,"viability, T/C",[3],87.3%
same,"viability, T/C",[4],95%
same,"viability, T/C",[5],96%
same,"viability, T/C",[6],80.9%
same,"viability, T/C",[7],50.1%
same,"viability, T/C",[8],50.6%
same,"viability, T/C",[9],55%
same,"viability, T/C",[10],63%
same,"viability, T/C",[11],46%
same,"viability, T/C",[12],42.5%
same,"viability, T/C",[13],23%
same,"viability, T/C",[14],21.9%
same,"viability, T/C",[15],22.9%
same,"viability, T/C",[16],22.4%
same,"viability, T/C",[17],20.8%
same,"viability, T/C",[18],21.8%
same,"viability, T/C",[19],18.8%
same,"viability, T/C",[20],19.7%
same,"viability, T/C",[21],19.8%
same,"viability, T/C",[22],20.7%
same,"viability, T/C",[23],20.5%
same,"viability, T/C",[24],21%
same,"viability, T/C",[25],24.3%
same,"viability, T/C",[26],20.9%
same,"viability, T/C",[27],22.7%
same,"viability, T/C",[28],22.2%
same,"viability, T/C",[29],22.3%
same,"viability, T/C",[30],20%
same,"viability, T/C",[31],16.7%
same,"viability, T/C",[32],21.2%
same,"viability, T/C",[33],22.2%
same,"viability, T/C",[34],20.5%
same,"viability, T/C",[35],19.9%
same,"viability, T/C",[36],20%
CC(Nc1ccc2c(c1)OCCn1cc(N3C(=O)OCC3C(F)F)nc1-2)C(N)=O (stereo not given) + CNC(=O)c1ccc(Nc2nc(OC3CCCC3)c3c(-c4ccc5nc(C)oc5c4)c[nH]c3n2)c(OC)c1,IC50,second compound 0.0316 µM,161 nM
same,IC50,second compound 0.1 µM,181 nM
same,IC50,second compound 0.316 µM,< 31.6 nM
same,IC50,second compound 1 µM,< 31.6 nM
same,IC50,second compound 3.16 µM,< 31.6 nM
same,IC50,second compound 10 µM,< 31.6 nM
same,"viability, T/C",[1],80.5%
same,"viability, T/C",[2],59.6%
same,"viability, T/C",[3],36.1%
same,"viability, T/C",[4],26.3%
same,"viability, T/C",[5],19.7%
same,"viability, T/C",[6],11.1%
same,"viability, T/C",[7],61.9%
same,"viability, T/C",[8],58.6%
same,"viability, T/C",[9],42.6%
same,"viability, T/C",[10],27.5%
same,"viability, T/C",[11],19.7%
same,"viability, T/C",[12],12%
same,"viability, T/C",[13],15.8%
same,"viability, T/C",[14],15.3%
same,"viability, T/C",[15],13.8%
same,"viability, T/C",[16],13.4%
same,"viability, T/C",[17],9.9%
same,"viability, T/C",[18],6.79%
same,"viability, T/C",[19],16.9%
same,"viability, T/C",[20],16.6%
same,"viability, T/C",[21],11.4%
same,"viability, T/C",[22],9.1%
same,"viability, T/C",[23],8.21%
same,"viability, T/C",[24],4.44%
same,"viability, T/C",[25],21.2%
same,"viability, T/C",[26],15.8%
same,"viability, T/C",[27],9.09%
same,"viability, T/C",[28],9.68%
same,"viability, T/C",[29],8.52%
same,"viability, T/C",[30],5.74%
same,"viability, T/C",[31],15.8%
same,"viability, T/C",[32],12.1%
same,"viability, T/C",[33],10.3%
same,"viability, T/C",[34],10.3%
same,"viability, T/C",[35],7.09%
same,"viability, T/C",[36],3.99%
COc1c(OCCCN2CCOCC2)ccc2c3n(c(=NC(=O)c4cnc(N)nc4)nc12)CCN3 + CNC(=O)c1ccc(Nc2nc(OC3CCCC3)c3c(-c4ccc5nc(C)oc5c4)c[nH]c3n2)c(OC)c1,IC50,second compound 0.0316 µM,14.2 nM
same,IC50,second compound 0.1 µM,6.2 nM
same,IC50,second compound 0.316 µM,< 3.16 nM
same,IC50,second compound 1 µM,< 3.16 nM
same,IC50,second compound 3.16 µM,< 3.16 nM
same,IC50,second compound 10 µM,< 3.16 nM
same,"viability, T/C","second compound 0.0316 µM, first compound 0.00316 µM",84.2%
same,"viability, T/C","second compound 0.0316 µM, first compound 0.01 µM",58.8%
same,"viability, T/C",[1],29.8%
same,"viability, T/C",[2],10.1%
same,"viability, T/C",[3],4.15%
same,"viability, T/C",[4],1.68%
same,"viability, T/C","second compound 0.1 µM, first compound 0.00316 µM",52%
same,"viability, T/C","second compound 0.1 µM, first compound 0.01 µM",49.5%
same,"viability, T/C",[7],25.3%
same,"viability, T/C",[8],9.48%
same,"viability, T/C",[9],3.91%
same,"viability, T/C",[10],2.07%
same,"viability, T/C","second compound 0.316 µM, first compound 0.00316 µM",17.3%
same,"viability, T/C","second compound 0.316 µM, first compound 0.01 µM",18.5%
same,"viability, T/C",[13],8.61%
same,"viability, T/C",[14],7.71%
same,"viability, T/C",[15],3.19%
same,"viability, T/C",[16],1.46%
same,"viability, T/C","second compound 1 µM, first compound 0.00316 µM",19.4%
same,"viability, T/C","second compound 1 µM, first compound 0.01 µM",16.5%
same,"viability, T/C",[19],7.5%
same,"viability, T/C",[20],3.51%
same,"viability, T/C",[21],7.67%
same,"viability, T/C",[22],1.54%
same,"viability, T/C","second compound 3.16 µM, first compound 0.00316 µM",18.8%
same,"viability, T/C","second compound 3.16 µM, first compound 0.01 µM",14.2%
same,"viability, T/C",[25],10.1%
same,"viability, T/C",[26],7.42%
same,"viability, T/C",[27],2.07%
same,"viability, T/C",[28],1.38%
same,"viability, T/C","second compound 10 µM, first compound 0.00316 µM",16.3%
same,"viability, T/C","second compound 10 µM, first compound 0.01 µM",11.2%
same,"viability, T/C",[31],6.12%
same,"viability, T/C",[32],4.26%
same,"viability, T/C",[33],3.27%
same,"viability, T/C",[34],1.62%
